Laboratory results from patent publication US20250179028A1, “ACRYLAMIDE COMPOUNDS” (NRG THERAPEUTICS LTD, priority 2022, published 2025).

Experiments:
[1] = Hepatocyte clearance assay, rat; format: in vitro ADME; conditions: cryopreserved primary rat hepatocytes, average value from two experiments, read-out: Rat heps Clint
Method in brief: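 Cryopreserved rat or human hepatocytes, 0.5×10^6 viable cells/mL in L-15 medium, incubated with compound at 37 °C; samples to 120 min, duplicate. Parent loss by LC/MS/MS; t½ = 0.693/k from ln-linear regression, converted to CLint in μL/min/1×10^6 cells.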

CYP2D6 = CYP2D6 (Homo sapiens (Human), UniProt P10635); assay: Cytochrome P450 CYP2D6 inhibition in human liver microsomes; format: in vitro ADME; conditions: for IC50 / inhibition at 20 min, 1 µM: human liver microsomes, average value from two experiments; for inhibition at 20 min, 1 µM: probe dextromethorphan 2 µM (dextrorphan formation), 1 uM test compound, negative values = no effective inhibition
Sequence of CYP2D6 (P10635 whole entry): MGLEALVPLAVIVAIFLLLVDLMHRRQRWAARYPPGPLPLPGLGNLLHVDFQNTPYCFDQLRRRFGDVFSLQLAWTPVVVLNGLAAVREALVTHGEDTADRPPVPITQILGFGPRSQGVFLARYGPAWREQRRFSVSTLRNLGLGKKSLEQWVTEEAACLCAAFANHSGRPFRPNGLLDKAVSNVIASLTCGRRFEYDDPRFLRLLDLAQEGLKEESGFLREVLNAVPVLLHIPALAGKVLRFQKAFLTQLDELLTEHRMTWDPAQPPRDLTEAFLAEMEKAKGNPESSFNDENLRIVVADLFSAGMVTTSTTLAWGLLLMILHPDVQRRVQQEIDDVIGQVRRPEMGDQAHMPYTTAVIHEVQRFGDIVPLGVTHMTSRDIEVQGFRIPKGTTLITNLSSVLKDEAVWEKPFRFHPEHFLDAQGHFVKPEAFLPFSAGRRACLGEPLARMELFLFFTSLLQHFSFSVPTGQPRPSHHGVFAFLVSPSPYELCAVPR
Method in brief: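 Human liver microsomes (0.2 mg/mL) with 2 μM dextromethorphan in 100 mM PBS, test compound at 1 μM or 0.1-30 μM, 15 min preincubation then NADPH-started reaction for 20 min at 37° C, in duplicate. Dextrorphan formation by UPLC-MS/MS; IC50 from % decrease versus uninhibited control.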

| hepatocyte CLint at 1 µM [1] | IC50 (CYP2D6) | inhibition at 20 min, 1 µM (CYP2D6) | inhibition of CYP2D6 (in words) (CYP2D6) | Compound |
| --- | --- | --- | --- | --- |
| 27 µL/min/1e6 cells | > 30 µM | 2.27% | – | Cc1c(F)cccc1NC(=O)/C=C/c1ccc2c(c1)[nH]c(=O)n2C [Example 7, (E)-N-(3-fluoro-2-methylphenyl)-3-(1-methyl-2-oxo-2,3-dihydro-1H-benzo[d]imidazol-5-yl)acrylamide] |
| 46 µL/min/1e6 cells | – | 3.13% | – | Cc1c(F)cccc1NC(=O)/C=C/c1ccc2c(c1)NC(=O)C2C (stereo not drawn) [Example 8, (E)-N-(3-fluoro-2-methylphenyl)-3-(3-methyl-2-oxoindolin-6-yl)acrylamide] |
| 27 µL/min/1e6 cells | – | -2.57% | – | Cc1c(F)cccc1NC(=O)/C=C/c1ccc2c(c1F)NC(=O)C2 [Example 5, (E)-N-(3-fluoro-2-methylphenyl)-3-(7-fluoro-2-oxoindolin-6-yl)acrylamide] |
| 35.7 µL/min/1e6 cells | – | 0.7% | – | Cc1c(F)cccc1NC(=O)/C=C/c1ccc2c(c1)[nH]c(=O)n2C1CC1 [Example 23, (E)-3-(1-cyclopropyl-2-oxo-2,3-dihydro-1H-benzo[d]imidazol-5-yl)-N-(3-fluoro-2-methylphenyl)acrylamide] |
| 39.4 µL/min/1e6 cells | – | 8.2% | – | CO[C@H]1Cc2ccccc2[C@@H]1NC(=O)/C=C/c1ccc2c(C)n[nH]c2c1 [Example 54, (E)-N-((1S,2S)-2-methoxy-2,3-dihydro-1H-inden-1-yl)-3-(3-methyl-1H-indazol-6-yl)acrylamide] |
| – | – | 1.91% | – | Cc1c(F)cccc1NC(=O)/C(F)=C/c1ccc2c(c1)NC(=O)C2 [Example 47, (Z)-2-fluoro-N-(3-fluoro-2-methylphenyl)-3-(2-oxoindolin-6-yl)acrylamide] |
| 89 µL/min/1e6 cells | 0.074 µM | 86.5% | highly potent inhibitor of CYP2D6 | Cc1c(F)cccc1NC(=O)/C=C/c1ccc2cn[nH]c2c1 [Comparative Example 1, (E)-N-(2-methyl-3-fluorophenyl)-3-(1H-indazol-6-yl)acrylamide, reference compound] |
| 36.3 µL/min/1e6 cells | 13.8 µM | 2.05% | – | Cc1n[nH]c2cc(/C=C/C(=O)NC3CCc4ccccc43)ccc12 (stereo not drawn) [Example 25, (E)-N-(2,3-dihydro-1H-inden-1-yl)-3-(3-methyl-1H-indazol-6-yl)acrylamide] |
| 12.1 µL/min/1e6 cells | – | -3.33% | – | Cc1ccc(F)c(C)c1NC(=O)/C=C/c1ccc2c(c1)[nH]c(=O)n2C [Example 30, (E)-N-(3-fluoro-2,6-dimethylphenyl)-3-(1-methyl-2-oxo-2,3-dihydro-1H-benzo[d]imidazol-5-yl)acrylamide] |
| 21.1 µL/min/1e6 cells | > 30 µM | 3.66% | – | Cc1c(F)cccc1NC(=O)/C=C/c1ccc2c(c1)NC(=O)C2 [Example 10, (E)-N-(3-fluoro-2-methylphenyl)-3-(2-oxoindolin-6-yl)acrylamide] |
| 26.1 µL/min/1e6 cells | – | 2.05% | – | CCn1c(=O)[nH]c2cc(/C=C/C(=O)Nc3cccc(F)c3C)ccc21 [Example 22, (E)-3-(1-ethyl-2-oxo-2,3-dihydro-1H-benzo[d]imidazol-5-yl)-N-(3-fluoro-2-methylphenyl)acrylamide] |
| 53.3 µL/min/1e6 cells | 19 µM | 5.08% | – | Cc1c(F)cccc1NC(=O)/C=C/c1ccc2oc(=O)[nH]c2c1 [Example 6, (E)-N-(3-fluoro-2-methylphenyl)-3-(2-oxo-2,3-dihydrobenzo[d]oxazol-5-yl)acrylamide] |

| Compound | hepatocyte CLint at 1 µM [1] | IC50 (CYP2D6) | inhibition at 20 min, 1 µM (CYP2D6) | inhibition of CYP2D6 (in words) (CYP2D6) |
| --- | --- | --- | --- | --- |
| CO[C@H]1Cc2ccccc2[C@@H]1NC(=O)/C=C/c1ccc2c(F)n[nH]c2c1 [Example 73, (E)-3-(3-fluoro-1H-indazol-6-yl)-N-((1S,2S)-2-methoxy-2,3-dihydro-1H-Inden-1-yl)acrylamide] | 73.5 µL/min/1e6 cells | – | 34.6% | – |
| Cc1cccc(C)c1NC(=O)/C=C/c1ccc2c(c1)NC(=O)C2 [Example 19, (E)-N-(2,6-dimethylphenyl)-3-(2-oxoindolin-6-yl)acrylamide] | 9.1 µL/min/1e6 cells | – | -3.04% | – |
